Results taken from patent US20040082635A1, “Fused cyclic compounds and medicinal use thereof” (priority 2001, published 2004).
Counter-ions that a name gives are not always drawn.

Biological target: T1, HCV polymerase (Hepatitis C virus genotype 1b, UniProt P26663)
T1 construct: a region encoding NS5B (591 amino acids; J Virol 1991 Mar, 65(3), 1105-13) was amplified by PCR; 6 His (N); made in house; host or cells: Escherichia coli
Experiment: biochemical
Conditions: read-out: HCV polymerase inhibitory activity IC50

T1 sequence (P26663 2420-3010): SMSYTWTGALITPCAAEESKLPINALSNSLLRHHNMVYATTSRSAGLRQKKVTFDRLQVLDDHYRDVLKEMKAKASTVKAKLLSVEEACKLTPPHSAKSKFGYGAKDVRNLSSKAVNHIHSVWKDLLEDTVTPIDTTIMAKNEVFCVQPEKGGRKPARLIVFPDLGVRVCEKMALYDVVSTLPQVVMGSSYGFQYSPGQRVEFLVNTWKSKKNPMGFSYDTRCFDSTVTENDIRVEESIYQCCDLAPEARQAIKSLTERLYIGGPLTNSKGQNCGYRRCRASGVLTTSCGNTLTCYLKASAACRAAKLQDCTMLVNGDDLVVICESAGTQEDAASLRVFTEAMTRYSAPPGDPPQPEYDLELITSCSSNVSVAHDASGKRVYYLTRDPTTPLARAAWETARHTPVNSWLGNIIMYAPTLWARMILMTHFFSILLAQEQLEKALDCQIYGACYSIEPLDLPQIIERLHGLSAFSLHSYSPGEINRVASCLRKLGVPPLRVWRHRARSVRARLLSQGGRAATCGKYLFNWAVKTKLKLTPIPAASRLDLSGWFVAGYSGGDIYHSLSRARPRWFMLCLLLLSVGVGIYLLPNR

`Cc1cnc(-c2ccc(-c3ccc(Cl)cc3)c(COc3ccc(-c4nc5cc(C(=O)O)ccc5n4C4CCCCC4)cc3)c2)o1` [Example 365, 2-{4-[2-(4-chlorophenyl)-5-(5-methyloxazol-2-yl)benzyloxy]-phenyl}-1-cyclohexylbenzimidazole-5-carboxylic acid hydrochloride] and `NC(=O)c1ccc(-c2ccc(Cl)cc2COc2ccc(-c3nc4cc(C(=O)O)ccc4n3C3CCCCC3)cc2)cc1` [Example 195, 2-{4-[2-(4-carbamoylphenyl)-5-chlorobenzyloxy]phenyl}-1-cyclohexylbenzimidazole-5-carboxylic acid] are within 1.5-fold of each other in IC50: 20 nM for the first, 23 nM for the second.

First: CNC(=O)c1ccc(-c2ccc(Cl)cc2)c(COc2ccc(-c3nc4cc(C(=O)OC)ccc4n3C3CCCCC3)c(F)c2)c1 [Example 314, methyl 2-{4-[2-(4-chlorophenyl)-5-(methylcarbamoyl)benzyloxy]-2-fluorophenyl}-1-cyclohexylbenzimidazole-5-carboxylate]
Second: CCNC(=O)c1ccc(-c2ccc(Cl)cc2)c(COc2ccc(-c3nc4cc(C(=O)O)ccc4n3C3CCCCC3)c(F)c2)c1 [Example 390, 2-{4-[2-(4-chlorophenyl)-5-(ethylcarbamoyl)benzyloxy]-2-fluorophenyl}-1-cyclohexylbenzimidazole-5-carboxylic acid hydrochloride]
The IC50 of the first is 6.9-fold higher: 97 nM for the first, 14 nM for the second. The second is the more potent here.

`O=C(O)c1ccc2c(c1)nc(-c1ccc(OCc3cc(C(=O)NCc4ccccn4)ccc3-c3ccc(Cl)cc3)cc1)n2C1CCCCC1` [Example 323, 2-{4-[2-(4-chlorophenyl)-5-{N-(2-pyridylmethyl)carbamoyl}-benzyloxy]phenyl}-1-cyclohexylbenzimidazole-5-carboxylic acid dihydrochloride] and `O=C(O)c1ccc2c(c1)nc(-c1ccc(OCc3cc(C(=O)NCc4ccccc4)ccc3-c3ccc(Cl)cc3)cc1)n2C1CCCCC1` [Example 316, 2-{4-[2-(4-chlorophenyl)-5-(benzylcarbamoyl)benzyloxy]phenyl}-1-cyclohexylbenzimidazole-5-carboxylic acid hydrochloride] are within 1.5-fold of each other in IC50: 18 nM for the first, 22 nM for the second.

Going from `O=C(O)c1ccc2c(c1)nc(-c1ccc(Oc3ccccc3OCC(=O)N3CCCCC3)cc1)n2C1CCCCC1` [Example 192, 1-cyclohexyl-2-{4-[2-(piperidinocarbonylmethoxy)phenoxy]-phenyl}benzimidazole-5-carboxylic acid] to `O=C(O)c1ccc2c(c1)nc(-c1ccc(Oc3ccccc3O)cc1)n2C1CCCCC1` [Example 106, 1-cyclohexyl-2-[4-(2-hydroxyphenoxy)phenyl]benzimidazole-5-carboxylic acid], the IC50 rises from 220 nM to 400 nM (1.8-fold). The first is the more potent here.

First: O=C(O)c1ccc2c(c1)nc(-c1ccc(OCc3ccccc3)cc1)n2C1CCCCCC1 [Example 122, 2-(4-benzyloxyphenyl)-1-cycloheptylbenzimidazole-5-carboxylic acid]
Second: O=C(O)c1ccc2c(c1)nc(-c1ccc(OCc3cc(Cl)ccc3-c3ccncc3)cc1)n2C1CCCCC1 [Example 315, 2-{4-[5-chloro-2-(4-pyridyl)benzyloxy]phenyl}-1-cyclohexylbenzimidazole-5-carboxylic acid hydrochloride]
The IC50 of the first is 18-fold higher: 510 nM for the first, 28 nM for the second. The second is the more potent here.

`O=C(O)c1ccc2c(c1)nc(-c1ccc(OCc3cc(Cl)ccc3-c3ccc(Cl)cc3)cc1F)n2C1CCCCC1` [Example 174, 2-{4-[3-chloro-6-(4-chlorophenyl)benzyloxy]-2-fluorophenyl}-1-cyclohexylbenzimidazole-5-carboxylic acid] and `NC(=O)COCc1nc(-c2ccc(F)cc2)c(COc2ccc(-c3nc4cc(C(=O)O)ccc4n3C3CCCCC3)cc2)s1` [Example 428, 2-{4-[{4-(4-fluorophenyl)-2-[(carbamoylmethoxy)methyl]thiazol-5-yl}methoxy]phenyl}-1-cyclohexylbenzimidazole-5-carboxylic acid hydrochloride] are within 1.5-fold of each other in IC50: 30 nM for the first, 26 nM for the second.

Molecule `CC(C)(C)c1cc(COc2ccc(-c3nc4cc(C(=O)O)ccc4n3C3CCCCC3)cc2)cc(C(C)(C)C)c1` [Example 83, 1-cyclohexyl-2-[4-(3,5-di-tert-butylbenzyloxy)phenyl]-benzimidazole-5-carboxylic acid] has an IC50 of 520 nM.
